Source: US8501806B2, “Methods for preventing or reducing colon carcinogenesis” (Nogra Pharma Limited, priority 2008, dated 2013)

Assays:
[1] = system: established CT26-derived tumors; assay: Growth of established CT26 xenografts; assay type: in vivo, Balb/c mice; details: subcutaneously 80 mg/kg mouse/day for 2 weeks from day 14
Protocol: CT26 cells (1×10^5 cells in 300 μl PBS 1×) were injected subcutaneously into the flank of Balb/c mice, whose fur was shaved and depilated. Five groups of 10 mice each were implanted with CT26. The first group received daily subcutaneously 300 μl PBS (control), the remaining groups received daily subcutaneously compound 14 at a final dose of 1, 4, 8, or 12 mg/kg/mouse dissolved in 300 μl PBS. Both compound 14 and PBS were administered starting on day 3. Further experimentation was performed to assess whether compound 14 had anti-cancer activity when administered systemically. […] Mice were monitored over the time for weight loss. After 2 weeks, mice were sacrificed, tumors were photographed, then excised and their mass calculated according to the following formula: ½×(short diameter)×(long diameter)×(height). Total extracts were prepared from xenografts and analyzed for cyclin D1 protein content by Western blotting using a commercially available antibody (Santa Cruz Biotechnology). […] After 2 weeks, mice with similar tumor size, determined by caliper measurements, were divided into three groups of 8 mice each. […] Mice were monitored over the time for weight loss. After 2 weeks, mice were sacrificed, tumors were photographed, then excised and their mass calculated as described above. […] Mice were monitored over the time and sacrificed at day 28.

HCT-116 cells = assay: CFSE cell proliferation assay, HCT-116 cells; assay type: cell-based, human; details: equivalent concentrations; data not shown
Protocol: All reagents used in Examples 1-3 were from Sigma-Aldrich (Milan, Italy) unless specified. Compounds were dissolved as a 25 mM stock solution in culture medium, and the pH of the solution was adjusted to 7.4, if necessary, with NaOH. The human CRC cell lines, HCT-116 and HT-29 (expressing either wild-type or mutated p53 respectively), were maintained in McCoy's 5A supplemented with 10% fetal bovine serum (FBS), 1% penicillin/streptomycin, and 50 μg/ml gentamycin. The murine CRC cell line, CT26, was maintained in RPMI 1640 medium supplemented with 10% FBS and 1% penicillin/streptomycin.
For cell growth assays, serum-starved HCT-116, HT-29, and CT26 cells were plated in appropriate complete medium at 2×10^5 cells/ml/well in 6-well culture dishes and allowed to adhere overnight. Cells were then labeled with carboxyfluorescein diacetate succinimidyl ester (CFSE) (Invitrogen, Milan Italy) at 37° C. according to the manufacturer's instruction. After 30 minutes, the medium was removed and fresh media containing 0.05% bovine serum albumin (BSA), and increasing doses of 5-ASA or disclosed compounds were added. After 24 hours, cells were collected, washed twice with PBS 1×, and then incubated with 5 μg/ml of PI for 15 minutes, at 4° C. in the dark. CFSE and/or PI-positive cells were determined by flow cytometry (Becton Dickinson, FACSCalibur, Milan, Italy). To determine whether the negative effect of compound 14 (2-methoxy-5-amino-N-hydroxybenzamide) on proliferation was reversible, cells were cultured in the presence or absence of compound 14 (1.5 and 3 mM) for 24 hours (1st culture). Afterwards, cells were either left untreated or extensively washed and cultured with medium in the absence of compound 14 for additional 24 hours (2nd culture). The percentage of proliferating cells was then evaluated by flow cytometry.

Row | SMILES | tumor size of established CT26-derived tumors vs PBS [1] | effect on cell proliferation (osmotic control) (HCT-116 cells)
1 | Nc1ccc(O)c(C(=O)O)c1 [5-ASA, 5-amino salicylic acid, reference compound] | not 5-ASA significantly reduced | 
2 | OC[C@@H](O)[C@@H](O)[C@H](O)[C@H](O)CO [mannitol, reference compound] |  | No effect
